Molecules are shown by their SMILES.

This assay deals with human RBP4 (Homo sapiens (Human), UniProt P02753). In words: Binding assay by Retinol-RBP4-TTR ELISA. The conditions noted are these: retinol 50 nM, His-tagged human RBP4, biotinylated human TTR; read-out: human RBP4 binding inhibitory activity (IC50 nM). As for the experimental part: The action of the compound of the present invention to inhibit binding of RBP4 and retinol and TTR was evaluated using the Retinol-RBP4-TTR ELISA system shown below.
1F: Binding Assay by Retinol-RBP4-TTR ELISA
This ELISA system detects a complex of RBP4 and TTR based on a retinol-dependent binding of RBP4 to TTR.
His-tagged human RBP4 used was prepared in the above-mentioned 1C.
Biotinylate human TTR used was prepared in the above-mentioned 1E.
Streptavidin (20 μl) (10 μg/ml Streptavidin type II (Wako Pure Chemical Industries, Ltd.), 10 mM Tris-HCl (pH 7.5), 10 mM NaCl) was added to a 384 well black plate (Nunc MaxiSorp, Thermo Fisher Scientific Inc.), and the plate was subjected to centrifugation (1000 rpm, 1 min) and coated overnight at 4° C. The plate was washed twice with PBST (PBS, 0.05% Tween 20, 100 μl/well) and blocked with 25% Block Ace (Snow Brand Milk Products Co., Ltd., PBS, 100 μl/well). The plate was subjected to centrifugation (1000 rpm, 1 min) and incubated at room temperature for 4 hr or overnight at 4° C. The plate was washed twice with PBST (PBS, 0.05% Tween 20, 100 μl/well), and biotinylate human TTR (stock solution concentration 1.0 mg/ml) diluted 750-fold with PBST was added at 20 μl/well. The plate was subjected to centrifugation (1000 rpm, 1 min) and stood still at room temperature for 1.5 hr or overnight at 4° C. The plate was washed 3 times with PBST (100 μl/well), and His-tagged human RBP4 (stock solution concentration 0.96 mg/ml) diluted 4000-fold with a reaction buffer (50 mM Tris-HCl, 150 mM NaCl, 0.005% Tween 20, 1 mM DTT, 0.1% BSA) was added at 10 μl/well. The dilution series (8 doses from 10 mM, 200-fold concentration) of the compound was prepared with DMSO, and 1 μl of each was added to a reaction buffer (200 μl) containing retinol (50 nM) (Sigma-Aldrich Co.). A reaction buffer (200 μl) containing retinol and added with DMSO was used as a positive control, and reaction buffer (200 μl) free of retinol and added with DMSO was used as a negative control. Mixed solutions of retinol and the compound were added to the plate at 15 μl/well. The plate was stirred in a platemixer subjected to centrifugation (1000 rpm, 1 min) and reacted at room temperature for 2 hr. A 35% Block Ace solution diluted with the reaction buffer was added at 10 μl/well, centrifuged (1000 rpm, 1 min) and reacted at room temperature for 30 min. The plate was washed 3 times with PBST (100 μl/well) and SuperSignal ELISA Femto Maximum Sensitivity Substrate reagent (PIERCE, Thermo Fisher Scientific Inc.) was added at 30 μl/well, and the luminescence was measured by a platereader (Wallac).
The binding inhibitory activity of the compound was determined by 100×(positive control value-test compound value)/(positive control value-negative control value). The binding activity (IC50) was calculated from the binding inhibitory rate at each compound concentration using a graph drawing software, GraphPad Prism (GraphPad Software Inc.).
In general terms: ELISA stands for enzyme-linked immunosorbent assay.
The IC50 is the midpoint of a concentration-inhibition curve. For `CC(C)(C)c1ccccc1N1CCN(C(=O)C23CC4CC(CC(C(=O)O)(C4)C2)C3)CC1` [Example 1, 3-{[4-(2-tert-Butylphenyl)piperazin-1-yl]carbonyl}adamantane-1-carboxylic acid], the IC50 was determined as 95 nM.

As for `CC(C)(C)c1ccccc1N1CCN(C(=O)c2c[nH]cn2)CC1` [Example 3, 1-(2-tert-Butylphenyl)-4-(1H-imidazol-4-ylcarbonyl)piperazine], the IC50 was determined as 3.8 nM.

Consider `CC(C)(C)c1ccccc1N1CCN(C(=O)c2ccc(-c3noc(=O)[nH]3)cc2)CC1` [Example 19, 3-(4-{[4-(2-tert-Butylphenyl)piperazin-1-yl]carbonyl}phenyl)-1,2,4-oxadiazol-5(4H)-one], for which the IC50 turned out to be 49 nM.

In the case of `CC(C)(C)c1ccccc1N1CCN(C(=O)c2ccc(C(=O)O)cc2)CC1` [Example 34, 4-{[4-(2-tert-Butylphenyl)piperazin-1-yl]carbonyl}benzoic acid], the concentration for half-maximal inhibition (IC50) was found to be 480 nM.

With `CC(C)(C)c1ccccc1N1CCN(C(=O)c2ccc(OCC3CCNCC3)cc2)CC1` [Example 41, 1-(2-tert-Butylphenyl)-4-{[4-(piperidin-4-ylmethoxy)phenyl]carbonyl}piperazine], the IC50 is 250 nM.

Consider `CC(C)(C)c1ccccc1N1CCN(C(=O)Nc2ccccc2)CC1` [Example 56, 4-(2-tert-Butylphenyl)-N-phenylpiperazine-1-carboxamide], for which the concentration for half-maximal inhibition (IC50) was 58 nM.

With `CC(C)(C)c1ccccc1N1CCN(C(=O)CC2NC(=O)NC2=O)CC1` (centres unmarked) [Example 90, 5-{2-[4-(2-tert-Butylphenyl)piperazin-1-yl]-2-oxoethyl}imidazolidine-2,4-dione], the IC50 was determined as 34 nM.

Turning to `CC(C)(C)c1ccccc1N1CCN(C(=O)C(O)CO)CC1` (centres unmarked) [Example 110, 3-[4-(2-tert-Butylphenyl)piperazin-1-yl]-3-oxopropane-1,2-diol], the IC50 came to 330 nM.

These data come from patent publication US8853215B2, “Derivatives of N-acyl-N′-phenylpiperazine useful (inter alia) for the prophylaxis or treatment of diabetes” (Takeda Pharmaceutical Company Limited, priority 2009, dated 2014).
